From patent publication US20250154212A1, “METHOD OF DISRUPTING MEMORY AND LIPOPEPTIDE FOR USE IN SUCH METHOD” (The Research Foundation for The State University of New York, priority 2023, published 2025)

System: auditory-cued fear/threat memory in PKMζ-null mice
Test: Auditory-cued fear/threat conditioning, infusion into basolateral amygdala, PKMζ-null mice
Type: in vivo, mouse
Details: 6 nmol in 0.3 μL into each BLA, tested 1 day post-injection
Description: Mice were 8-10 weeks old at the time of cannulation and 9-11 weeks old at the beginning of behavioral experiments. Mice were housed with cage-mates in plastic cages and provided with food and water ad libitum. Mice were maintained on a 12 h light/dark cycle (lights on at 7:00 am) and behavioral experiments began at 9:00 am.
Mice were injected intraperitoneally (1 ml/100 g body weight) with an anesthetic cocktail containing ketamine (10 mg/ml) and xylazine (2 mg/ml). Mice were provided with analgesic treatment prior to surgery (carprofen; 5 mg/ml). Guide cannulae (Plastics One, Roanoke, VA) were implanted bilaterally in the basolateral amygdala (from bregma: AP-1.7 mm; L+/−3.0 mm; DV-4.4 mm) and secured to the skull with three jeweler's screws and dental cement. Antisedan (0.66 ml/100 g body weight of 0.5 mg drug/ml solution) was given via i.p. injection after surgery to reverse the anesthesia.
For 7 days following surgery, mice were handled by freely exploring the experimenter's palm for 2-5 min. Mice were habituated, trained, and tested in the same conditioning box (Coulbourn Habitest, Coulboum Instruments) with differing floors and walls to produce two different contexts (Context A and Context B). […] Freezing behavior (cessation of all movement except breathing) during the tone on Test 1 and Test 2 was scored by an experimenter blind to the conditions. […]

## O=S(=O)(O)c1cc(O)c2c(S(=O)(=O)O)cc(S(=O)(=O)O)cc2c1 [ζ-stat, 1-naphthol-3,6,8-trisulphonic acid]
  auditory-cued fear/threat memory retention (% time freezing to tone): not in PKMζ-null mice
